Test system: Chlamydia trachomatis
Assay type: in vivo, mice
Details: subcutaneous immunization with UV-inactivated Chlamydia, alone or co-administered with the named adjuvant

## CC(C)Cn1cnc2c(N)nc3ccccc3c21 [IMQ, imiquimod]
  Protection against genital Chlamydia challenge (Chlamydia load): did not provide protection or tolerance

— patent publication US10485861B2 (priority 2013, dated 2019)
